Assay [1] concerns the target T1, Keap1 Kelch domain (321-609) / TAMRA-labeled 16mer NRF2 peptide (ETGE motif) (Homo sapiens, UniProt Q14145).
T1 construct: the Kelch domain (321-609) of Keap1 is used
As to the kind of experiment: NRF2-Keap1 FP Assay (Keap1 Kelch fluorescence polarization). The class given is binding. To be noted: 20 nM Keap1 (321-609), 8 nM Tamra labeled peptide. The method in brief:
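Compound dilutions (3-fold) were incubated 1 hr at room temperature with 20 nM Keap1 Kelch (321-609) and 8 nM TAMRA-labeled ETGE 16mer peptide. Buffer was 50 mM Tris pH 8.0, 100 mM NaCl, 5 mM MgCl2, 1 mM DTT, 2 mM CHAPS, 0.005% BSA. Fluorescence polarization (mP) was normalized to controls and fitted with a four-parameter equation to give pIC50.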

Assay [2] concerns the target T2, full length Keap1 protein / full length NRF2 protein (Homo sapiens, UniProt Q14145).
T2 construct: full length NRF2 protein and full length Keap1 protein (Keap1 exists a dimer) are used; His
As to the kind of experiment: NRF2-Keap1 TR-FRET Low Protein Assay. The format is binding. As to conditions: 1.25 nM Keap1 FlagHis and 2.5 nM biotin-NRF2 added. The method in brief:
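Flag-tagged full-length Keap1 was preincubated with compound (3-fold series) for 2.25 h at 37 °C in Tris pH 8.0/MgCl2/NaCl/BSA/DTT/CHAPS. Biotin-Avi-NRF2 (added at 2.5 nM) was then bound for 1.25 h at 4 °C. Eu-streptavidin/anti-Flag-APC TR-FRET (665/615 nm) was read after 1 h at RT, and pIC50 came from a four-parameter fit.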
Background: In TR-FRET formats the signal depends on donor and acceptor labels being close together.

The subject of assay [3] is NQO1 specific enzyme activity in BEAS-2B cells (marker for NRF2 activation). As to the kind of experiment: BEAS-2B NQO1 MTT Assay. As to conditions: compound incubated 48 hours, read-out: EC50 (NQO1 specific enzyme activity induction). The format is cell-based. The method in brief:
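BEAS-2B cells treated with compound for 48 h at 37 °C, then lysed; NQO1 activity in lysates measured kinetically by MTT reduction at A570 over 30 min. pEC50 from 3-parameter fit of ΔOD/min versus log concentration; lysate also taken for Cell Titer Glo.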

Structures can show the parent of a compound that is named as a salt. Where two headings read alike, the source gives them in different places.

T1 sequence (Q14145 321-609): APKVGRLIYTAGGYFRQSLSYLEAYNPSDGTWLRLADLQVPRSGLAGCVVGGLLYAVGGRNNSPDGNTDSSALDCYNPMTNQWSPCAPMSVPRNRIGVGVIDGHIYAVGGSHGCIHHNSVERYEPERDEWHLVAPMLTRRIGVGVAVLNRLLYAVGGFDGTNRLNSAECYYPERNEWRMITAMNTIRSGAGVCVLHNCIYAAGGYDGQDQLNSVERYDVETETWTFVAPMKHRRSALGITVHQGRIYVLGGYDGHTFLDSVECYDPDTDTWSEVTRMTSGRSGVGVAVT
T2 sequence (Q14145 whole entry): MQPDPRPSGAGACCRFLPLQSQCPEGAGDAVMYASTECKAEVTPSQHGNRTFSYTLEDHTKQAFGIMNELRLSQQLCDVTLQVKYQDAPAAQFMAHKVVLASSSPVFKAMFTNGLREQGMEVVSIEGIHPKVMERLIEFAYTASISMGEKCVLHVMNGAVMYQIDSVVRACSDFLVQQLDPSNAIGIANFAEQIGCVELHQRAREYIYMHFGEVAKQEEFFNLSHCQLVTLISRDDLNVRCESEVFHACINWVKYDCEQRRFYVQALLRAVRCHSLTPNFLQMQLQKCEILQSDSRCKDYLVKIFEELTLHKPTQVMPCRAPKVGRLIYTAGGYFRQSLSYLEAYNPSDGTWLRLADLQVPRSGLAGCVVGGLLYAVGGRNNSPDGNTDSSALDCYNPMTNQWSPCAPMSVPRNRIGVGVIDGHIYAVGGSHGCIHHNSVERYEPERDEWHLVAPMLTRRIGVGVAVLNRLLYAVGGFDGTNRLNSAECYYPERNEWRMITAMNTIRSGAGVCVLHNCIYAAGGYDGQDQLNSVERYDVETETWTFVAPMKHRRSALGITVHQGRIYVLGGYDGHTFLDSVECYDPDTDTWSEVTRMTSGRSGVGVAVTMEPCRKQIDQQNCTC

For `C[C@@H]1Cc2ccc(Br)cc2S(=O)(=O)N(Cc2cccc(-c3cccc(-n4ncc(C(=O)O)c4[C@@H]4C[C@H]4c4cn(C)nn4)c3)c2)C1` (single isomer, unassigned; isomer 2) [Example 135], the concentration for half-maximal inhibition (IC50) in assay [1] and in assay [2] was 10 to 100 nM each time. Further, in assay [3] (Homo sapiens), the EC50 lay within 10 to 100 nM.

For the molecule `C[C@H](Oc1cccc(-c2cccc(-n3ncc(C(=O)O)c3[C@@H]3C[C@H]3c3cn(C)nn3)c2)c1)C1CCCCC1` [Example 64, 1-(3′-((S)-1-Cyclohexylethoxy)-[1,1′-biphenyl]-3-yl)-5-((1R,2R)-2-(1-methyl-1H-1,2,3-triazol-4-yl)cyclopropyl)-1H-pyrazole-4-carboxylic Acid], the IC50 in assay [1] was 10 to 100 nM; in assay [2] it was under 10 nM. Moreover, in assay [3] (Homo sapiens, BEAS-2B, 48 h), the concentration giving a half-maximal response (EC50) fell in the range of 10 to 100 nM.

Consider `CC[C@@H]1CN(Cc2cccc(-c3cccc(-n4ncc(C(=O)O)c4[C@@H]4C[C@H]4c4cn(C)nn4)c3)c2)Cc2ccccc2O1` [Example 65, 1-(3′-(((R)-2-Ethyl-2,3-dihydrobenzo[f][1,4]oxazepin-4(5H)-yl)methyl)-[1,1′-biphenyl]-3-yl)-5-((1R,2R)-2-(1-methyl-1H-1,2,3-triazol-4-yl)cyclopropyl)-1H-pyrazole-4-carboxylic Acid], for which the half-maximal inhibitory concentration (IC50) in assay [1] was 10 to 100 nM; in assay [2] it was under 10 nM. Besides, the EC50 in assay [3] (Homo sapiens) was 100 to 1000 nM.

Take `C[C@H](Oc1cccc(-c2cccc(-n3ncc(C(=O)O)c3[C@@H]3C[C@H]3c3cn(C)nn3)c2)c1)C1CCCCC1` [Example 68, 1-(3′-((S)-1-Cyclohexylethoxy)-[1,1′-biphenyl]-3-yl)-5-((1R,2R)-2-(1-methyl-1H-1,2,3-triazol-4-yl)cyclopropyl)-1H-pyrazole-4-carboxylate, Sodium salt]: the half-inhibitory concentration (IC50) in assay [1] is 10 to 100 nM; in assay [2] it was under 10 nM. The EC50 in assay [3] (Homo sapiens, BEAS-2B, 48 h) was in the range of 1 to 10 nM.

Consider `C[C@H](Oc1cccc(-c2cccc(-n3ncc(C(=O)O)c3[C@@H]3C[C@H]3c3cn(C)nn3)c2)c1)C1CCCCC1` [Example 69, Barium 1-(3′-((S)-1-Cyclohexylethoxy)-[1,1′-biphenyl]-3-yl)-5-((1R,2R)-2-(1-methyl-1H-1,2,3-triazol-4-yl)cyclopropyl)-1H-pyrazole-4-carboxylate Hydroxide], for which the half-inhibitory concentration (IC50) in assay [1] was 1 to 10 nM; in assay [2] it was under 10 nM. In assay [3], the EC50 was under 1 nM.

Consider `C[C@H](Oc1cccc(-c2cccc(-n3ncc(C(=O)O)c3[C@@H]3C[C@H]3c3cn(C)nn3)c2)c1)C1CCCCC1` [Example 70, Calcium 1-(3′-((S)-1-Cyclohexylethoxy)-[1,1′-biphenyl]-3-yl)-5-((1R,2R)-2-(1-methyl-1H-1,2,3-triazol-4-yl)cyclopropyl)-1H-pyrazole-4-carboxylate Hydroxide], for which the IC50 in assay [1] was 10 to 100 nM; in assay [2] it was under 10 nM. In addition, in assay [3] (Homo sapiens), the EC50 was under 1 nM.

`C[C@H](Oc1cccc(-c2cccc(-n3ncc(C(=O)O)c3[C@@H]3C[C@H]3c3cn(C)nn3)c2)c1)C1CCCCCC1` [Example 73, 1-(3′-((S)-1-Cycloheptylethoxy)-[1,1′-biphenyl]-3-yl)-5-((1R,2R)-2-(1-methyl-1H-1,2,3-triazol-4-yl)cyclopropyl)-1H-pyrazole-4-carboxylic Acid]: the concentration for half-maximal inhibition (IC50) in assay [1] is 10 to 100 nM; in assay [2] it was under 10 nM. The EC50 in assay [3] (Homo sapiens) is 1 to 10 nM.

With `C[C@@H](Oc1cccc(-c2cccc(-n3ncc(C(=O)O)c3[C@@H]3C[C@H]3c3cn(C)nn3)c2)c1)C1CCCCCC1` [Example 74, 1-(3′-((R)-1-Cycloheptylethoxy)-[1,1′-biphenyl]-3-yl)-5-((1R,2R)-2-(1-methyl-1H-1,2,3-triazol-4-yl)cyclopropyl)-1H-pyrazole-4-carboxylic Acid], the IC50 in assay [1] and in assay [2] was 10 to 100 nM throughout. Further, the half-maximal effective concentration (EC50) in assay [3] (Homo sapiens) fell in the range of 10 to 100 nM.

As to `C[C@H](Oc1cccc(-c2cccc(-n3ncc(C(=O)O)c3[C@@H]3C[C@H]3c3cn(C4CCOCC4)nn3)c2)c1)C1CCCCC1` [Example 95, 1-(3′-((S)-1-Cyclohexylethoxy)-[1,1′-biphenyl]-3-yl)-5-((1R,2R)-2-(1-(tetrahydro-2H-pyran-4-yl)-1H-1,2,3-triazol-4-yl)cyclopropyl)-1H-pyrazole-4-carboxylic Acid], the IC50 in assay [1] was 10 to 100 nM; in assay [2], under 10 nM. Moreover, the EC50 in assay [3] (Homo sapiens) was in the range of 1 to 10 nM.

Turning to `C[C@H](Oc1cccc(-c2cccc(-n3ncc(C(=O)O)c3[C@H]3C[C@@H]3c3cn(C4CCOCC4)nn3)c2)c1)C1CCCCC1` [Example 96], the IC50 in assay [1] was 1000 to 10000 nM; in assay [2], 100 to 1000 nM. Besides, the EC50 in assay [3] (Homo sapiens) fell in the range of 100 to 1000 nM.

For `C[C@H](Oc1cccc(-c2cccc(-n3ncc(C(=O)O)c3[C@@H]3C[C@H]3c3cn(CC(F)(F)F)nn3)c2)c1)C1CCCCC1` [Example 97, 1-(3′-((S)-1-Cyclohexylethoxy)-[1,1′-biphenyl]-3-yl)-5-((1R,2R)-2-(1-(2,2,2-trifluoroethyl)-1H-1,2,3-triazol-4-yl)cyclopropyl)-1H-pyrazole-4-carboxylic acid], the concentration for half-maximal inhibition (IC50) in assay [1] and in assay [2] was 10 to 100 nM throughout. Moreover, in assay [3] (Homo sapiens), the EC50 lay in the range of 1 to 10 nM.

Take `C[C@H](Oc1cccc(-c2cccc(-n3ncc(C(=O)O)c3[C@@H]3C[C@H]3c3cn(C4CC4)nn3)c2)c1)C1CCCCC1` [Example 98, 1-(3′-((S)-1-Cyclohexylethoxy)-[1,1′-biphenyl]-3-yl)-5-((1R,2R)-2-(1-cyclopropyl-1H-1,2,3-triazol-4-yl)cyclopropyl)-1H-pyrazole-4-carboxylic acid]: the results for the half-maximal inhibitory concentration (IC50) in assay [1] and in assay [2] were 10 to 100 nM and under 10 nM, respectively. The concentration giving a half-maximal response (EC50) in assay [3] (Homo sapiens) lay in the range of 1 to 10 nM.

For the molecule `C[C@H](Oc1cccc(-c2cccc(-n3ncc(C(=O)O)c3[C@@H]3C[C@H]3c3c[nH]nn3)c2)c1)C1CCCCC1` [Example 99, 5-((1R,2R)-2-(1H-1,2,3-Triazol-4-yl)cyclopropyl)-1-(3′-((S)-1-cyclohexylethoxy)-[1,1′-biphenyl]-3-yl)-1H-pyrazole-4-carboxylic Acid], the IC50 in assay [1] was 10 to 100 nM; in assay [2], under 10 nM. The EC50 in assay [3] (Homo sapiens) is 1 to 10 nM.

As for `C[C@H](Oc1cccc(-c2cccc(-n3ncc(C(=O)O)c3[C@H]3C[C@@H]3c3c[nH]nn3)c2)c1)C1CCCCC1` [Example 100, 5-((1S,2S)-2-(1H-1,2,3-Triazol-4-yl)cyclopropyl)-1-(3′-((S)-1-cyclohexylethoxy)-[1,1′-biphenyl]-3-yl)-1H-pyrazole-4-carboxylic Acid], the results for the concentration for half-maximal inhibition (IC50) in assay [1] and in assay [2] were 1000 to 10000 nM and 100 to 1000 nM, respectively. In assay [3] (Homo sapiens), the EC50 is 100 to 1000 nM.

`C[C@H](Oc1cccc(-c2cccc(-n3ncc(C(=O)O)c3[C@@H]3C[C@H]3c3cn(C)nn3)c2)c1F)C1CCCCC1` [Example 104, 1-(3′-((S)-1-cyclohexylethoxy)-2′-fluoro-[1,1′-biphenyl]-3-yl)-5-((1R,2R)-2-(1-methyl-1H-1,2,3-triazol-4-yl)cyclopropyl)-1H-pyrazole-4-carboxylic Acid]: the half-inhibitory concentration (IC50) in assay [1] and in assay [2] was 10 to 100 nM throughout. The EC50 in assay [3] (Homo sapiens) was in the range of 10 to 100 nM.

Regarding `CCOC(=O)c1cnn(-c2cccc(-c3cccc(O[C@@H](C)C4CCCCC4)c3)c2)c1[C@@H]1C[C@H]1c1cn(C)nn1` [Example 105, Ethyl 1-(3′-((S)-1-cyclohexylethoxy)-[1,1′-biphenyl]-3-yl)-5-((1R,2R)-2-(1-methyl-1H-1,2,3-triazol-4-yl)cyclopropyl)-1H-pyrazole-4-carboxylate], the concentration for half-maximal inhibition (IC50) in assay [1] was over 10000 nM; in assay [2], 1000 to 10000 nM. The concentration giving a half-maximal response (EC50) in assay [3] (Homo sapiens) was under 1 nM.

Take `C[C@H](Oc1cccc(-c2cccc(-n3ncc(C(=O)OC4CCOC4=O)c3[C@@H]3C[C@H]3c3cn(C)nn3)c2)c1)C1CCCCC1` (stereo partly drawn) [Example 106, 2-Oxotetrahydrofuran-3-yl 1-(3′-((S)-1-cyclohexylethoxy)-[1,1′-biphenyl]-3-yl)-5-((1R,2R)-2-(1-methyl-1H-1,2,3-triazol-4-yl)cyclopropyl)-1H-pyrazole-4-carboxylate]: the concentration for half-maximal inhibition (IC50) in assay [1] is over 10000 nM; in assay [2] it was 1000 to 10000 nM. For the same molecule, the EC50 in assay [3] (Homo sapiens) fell in the range of 100 to 1000 nM.

Regarding `C[C@H](Oc1cccc(-c2cccc(-n3ncc(C(=O)OCCO)c3[C@@H]3C[C@H]3c3cn(C)nn3)c2)c1)C1CCCCC1` [Example 107, 2-Hydroxyethyl 1-(3′-((S)-1-cyclohexylethoxy)-[1,1′-biphenyl]-3-yl)-5-((1R,2R)-2-(1-methyl-1H-1,2,3-triazol-4-yl)cyclopropyl)-1H-pyrazole-4-carboxylate], the IC50 in assay [1] was over 10000 nM; in assay [2], 1000 to 10000 nM. Moreover, the half-maximal effective concentration (EC50) in assay [3] (Homo sapiens) fell in the range of 100 to 1000 nM.

In general, IC50 refers to the concentration that gives 50% inhibition. What is called EC50 is the concentration at which the effect is half-maximal.

Values taken from patent publication US10364256B2 (GlaxoSmithKline Intellectual Property Development Limited, priority 2015, dated 2019).
